Measured values: US12570639B2, “Tetrahydroquinoline derivative and medicinal use thereof” (Toray Industries, Inc., priority 2020, dated 2026)

Tests used:
[1] = tested on: Human fibrosarcoma cells (HT-1080 cells); test: In vitro inhibitory action against ferroptosis (Erastin-induced cell death, Cell Counting Kit-8); type: cell-based; conditions: Erastin 3 μmol/L, 24 hours
[2] = In vitro radical scavenging action (DPPH method); conditions: 30 minutes at room temperature, maximum concentration 100 μmol/L
[3] = tested on: MOG-induced experimental autoimmune encephalomyelitis mouse model; test: Activity assessment 4 in MOG-induced experimental autoimmune encephalomyelitis mouse model; type: in vivo, C57BL/6J mice; conditions: 10 mg/kg orally twice daily for 16 days starting 52 days after MOG35-55 inoculation; vs vehicle-dosing group (2.25)
Method: (§1) A PBS solution prepared to contain a synthetic partial peptide of MOG (MOG35-55; CSBio) at a concentration of 4 mg/mL was mixed with an equal volume of Freund's complete adjuvant, and a total of 0.1 mL (0.05 mL per flank) of the resulting MOG35-55 dosing solution was inoculated intradermally into the bilateral flanks of C57BL/6J mice (male, 10 weeks old, Charles River Laboratories Japan, Inc.). On the day of inoculation of the MOG35-55 dosing solution and on the second day after the inoculation, 200 μL of pertussis toxin (Sigma Co. LLC) prepared at a concentration of 1 μg/mL was further administered intraperitoneally to the mice.
(§2) The compound of Example 11, the compound of Example 32, and the compound of Example 36 were used as test compounds to assess the effect of the test compounds on increase of neurological score in the MOG-induced experimental autoimmune encephalomyelitis mouse model. […] In addition, the score was determined by the following criteria: 0, normal; 0.5, partial drooping tail; 1, full drooping tail or hind-limb weakness; 2, full drooping tail and hind-limb weakness; 3, hind-limb partial paralysis; 4, hind-limb complete paralysis; 5, fore- and hind-limb complete paralysis. […]

[4] = tested on: MOG-induced experimental autoimmune encephalomyelitis mouse model; test: Activity assessment 6 in MOG-induced experimental autoimmune encephalomyelitis mouse model; type: in vivo, C57BL/6J mice; conditions: 10 mg/kg orally twice daily for 12 days starting 52 days after MOG35-55 inoculation; vs vehicle-dosing group (2.13)
Method: as §1, §2

[5] = tested on: MOG-induced experimental autoimmune encephalomyelitis mouse model; test: Activity assessment 5 in MOG-induced experimental autoimmune encephalomyelitis mouse model; type: in vivo, C57BL/6J mice; conditions: 10 mg/kg orally twice daily for 15 days starting 52 days after MOG35-55 inoculation; vs vehicle-dosing group (2.13)
Method: as §1, §2

[6] = tested on: MOG-induced experimental autoimmune encephalomyelitis mouse model; test: Activity assessment 1 in MOG-induced experimental autoimmune encephalomyelitis mouse model; type: in vivo, C57BL/6J mice; conditions: 30 mg/kg orally twice daily for 15 days starting 55 days after MOG35-55 inoculation
Method: The effect of the compound of Example 1 on increase of neurological score was assessed in the MOG-induced experimental autoimmune encephalomyelitis mouse model. The MOG-induced experimental autoimmune encephalomyelitis mouse model was produced according to the method of Jianfeng et al. (The Journal of Immunology, 2009, vol. 182, p. 4036-4045) with partial modification. A PBS solution prepared to contain a synthetic partial peptide of MOG (MOG35-55; CSBio) at a concentration of 4 mg/mL was mixed with an equal volume of Freund's complete adjuvant, and a total of 0.1 mL (0.05 mL per flank) of the resulting MOG35-55 dosing solution was inoculated intradermally into the bilateral flanks of C57BL/6J mice (male, 10 weeks old, Charles River Laboratories Japan, Inc.). On the day of inoculation of the MOG35-55 dosing solution and on the second day after the inoculation, 200 μL of pertussis toxin (Sigma Co. LLC) prepared at a concentration of 1 μg/mL was further administered intraperitoneally to the mice. A test compound was administered orally at a dose of 30 mg/kg twice daily for a period of 15 days starting 55 days after the inoculation of the MOG35-55 dosing solution. The test compound was suspended in a 0.5% methylcellulose solution (hereinafter referred to as vehicle), and the resulting suspension was used. […]

[7] = evaluation concentration 10 μmol/L
[8] = evaluation concentration 30 μmol/L

| SMILES | Ferroptosis inhibition rate (%) [1, 7] [%] | EC50 [2] [µM] | neurological score reduction rate [3] [%] | neurological score reduction rate [4] [%] | Ferroptosis inhibition rate (%) [1, 8] [%] | neurological score reduction rate [5] [%] | neurological score ([6]; next day after last administration, mean, n=7) | neurological score reduction rate ([6]; vs vehicle-dosing group (2.43)) [%] |
| --- | --- | --- | --- | --- | --- | --- | --- | --- |
| Cc1ccc2c(c1)CCC(c1ccc(S(N)(=O)=O)cc1)N2 (stereo not shown) [Example 119, 4-(6-methyl-1,2,3,4-tetrahydro-quinolin-2-yl)benzenesulfonamide] | 89.67 | > 100 | 33.3 |  |  |  |  |  |
| NS(=O)(=O)c1ccc(C2CCc3cc(Cl)ccc3N2)cc1 (stereo not shown) [Example 117, 4-(6-chloro-1,2,3,4-tetrahydroquinolin-2-yl)benzenesulfonamide] | 76.27 | > 100 |  | 32.4 |  |  |  |  |
| NS(=O)(=O)c1ccc(C2CCc3ccccc3N2)cc1 (stereo not shown) [Example 33, 4-(1,2,3,4-tetrahydroquinolin-2-yl)benzenesulfonamide] |  | > 100 |  |  | 84.88 | 38.2 |  |  |
| Cl.c1ccc(C2CCc3ccccc3N2)cc1 (stereo not shown) [Example 1, 2-phenyl-1,2,3,4-tetrahydroquinoline hydrochloride] |  | > 100 |  |  | 110.5 |  | 1.29 | 46.9 |
| NC(=O)c1ccc(C2CCc3ccccc3N2)cc1 (stereo not shown) [Example 38, 4-(1,2,3,4-tetrahydroquinolin-2-yl)benzamide] |  | > 100 | 27.8 |  | 104.0 |  |  |  |
| NS(=O)(=O)c1ccc(C2CCc3cc(F)ccc3N2)cc1 (stereo not shown) [Example 108, 4-(6-fluoro-1,2,3,4-tetrahydroquinolin-2-yl)benzenesulfonamide] | 83.78 | > 100 |  | 29.4 |  |  |  |  |
